Measured values reported in US20230176038A1, “Methods for Identifying Modulators of Insect Transient Receptor Potential Channels” (BASF Corporation, priority 2019, published 2023).

Columns and labels:
[1] = tested on: Nanchung and Water witch (Nan + Wtrw) complexes; assay: Calcium mobilization (fluo-4, FLIPR) in CHO-K1 cells co-expressing Nanchung and Water witch; conditions: for Ca2+ mobilization response: CHO-K1 cells co-expressing Nanchung and Water witch
Description: (§1) DNAs encoding for tagged TRP channels were delivered into CHO-K1 cells using adenoviruses. Adenovirus-mediated gene delivery allowed for expression of the gene of interest, optimize expression levels and stoichiometry of subunits, as well as prevention of possible toxic effects of insect TRP channels by maintaining virus-infected cells at room temperature.
(§2) To test the hypothesis that Water witch may also be involved in the action of PM and AP, Water witch was expressed in CHO-K1 cells either alone or in combination with Nanchung. Given that TRP channels are permeable for Ca2+, cell responces were measured by monitoring Ca2+ mobilization using Ca2+ sensitive fluorescent probe FLUO4.
(§3) Hamster CHO-K1 cells (ATCC ® CCL-61TM) were infected with adenoviruses expressing TRP channels individually or in combinations. The cells were kept overnight at 37° C., followed by 3 days at 25° C. The medium was changed two days after seeding. Calcium mobilization was detected using fluorescent calcium probe fluo-4AM (Life Technologies) and measured by FLIPR-TETRA instrument (Molecular Devices, Sunnyvale, CA). The cells were loaded with 50 µl of Hank’s buffered salt solution (HBSS) containing 4 µM fluo-4AM, 5 mM probenecid, 20 mM CaCl2, and 0.02% pluoronic for 2 hours at 25° C. The dye was then discarded, 50 µl of HBSS were added. The test compounds were dissolved in DMSO and added to the cells in 50 µl HBSS, yielding a final DMSO concentration of 0.2%. Fluorescence was monitored for 10 minutes at 1 second intervals at 470-495 nm/515-575 nm excitation/emission wavelengths. EC50 values were calculated using GraphPad Prism (GraphPad Software).

[2] = tested on: Nanchung and Inactive (Nan + Iav) complexes; assay: Calcium mobilization in CHO-K1 cells co-expressing Nanchung and Inactive; assay type: cell-based, Drosophila melanogaster
Nanchung (Nan) [3] = assay: Calcium mobilization in CHO-K1 cells expressing Nanchung alone; assay type: cell-based, Drosophila melanogaster; conditions: CHO-K1 cells expressing Nanchung individually
[4] = tested on: Inactive and Water witch (Iav + Wtrw); assay: Calcium mobilization in CHO-K1 cells co-expressing Inactive and Water witch; assay type: cell-based, Drosophila melanogaster
[5] = tested on: parental mammalian cells (CHO-K1); assay: Calcium mobilization in parental mammalian cells; assay type: cell-based, hamster; conditions: prior to infection
Water witch (Wtrw) = assay: Calcium mobilization in CHO-K1 cells expressing Water witch alone; conditions: CHO-K1 cells expressing Water witch individually
Description: as §1, §2, §3

[6] = target: complexes formed by Nanchung protein and Water witch protein (Nan + Wtrw) (Drosophila melanogaster, UniProt A0ACM8PYI9); assay: biochemical; assay type: binding; conditions: for Inhibition of binding of tritiated afidopyropen: membranes from cells co-expressing Nanchung and Water witch
[7] = tested on: complexes formed by Nanchung protein and Inactive protein; assay: [3H]-afidopyropen competition binding to membranes of cells co-expressing Nanchung and Inactive; set-up: species or system Drosophila melanogaster; conditions: membranes from cells co-expressing Nanchung and Inactive
[8] = target: Nanchung (Nan) protein alone (Drosophila melanogaster, UniProt A0ACM8PYI9); assay: [3H]-afidopyropen saturation binding to membranes of CHO-K1 cells expressing Nanchung alone; conditions: membranes from CHO-K1 cells expressing Nanchung individually; read-out: Kd, specific binding of tritium-labeled afidopyropen
[9] = tested on: Water witch (Wtrw) protein alone; assay: [3H]-afidopyropen saturation binding to membranes expressing Water witch alone; set-up: species or system Drosophila melanogaster
Nanchung (Nan) [10] = conditions: previously shown; cited from earlier work
[11] = target: T1, complexes formed by Nanchung and Water witch proteins (Wtrw + Nan) (Drosophila melanogaster, UniProt Q9VHY7+Q9VUD5); assay: Calcium mobilization (fluo-4AM, FLIPR-TETRA) in CHO-K1 cells co-expressing Water witch and Nanchung; assay type: cell-based; conditions: FIG. 2B; hamster CHO-K1 cells, adenovirus; Wtrw (SEQ ID NO 63) C-terminal FLAG/AcGFP, Nan (SEQ ID NO 7) C-terminal HA/mCherry; fluo-4AM, 20 mM CaCl2, 0.2% DMSO, 10 min; read-out: Wtrw + Nan (Water witch:Nanchung complex) EC50 (calcium response)
T1 construct: adenoviral co-expression in CHO-K1 cells, fluo-4 calcium FLIPR
T1 sequence (Q9VUD5 1-833): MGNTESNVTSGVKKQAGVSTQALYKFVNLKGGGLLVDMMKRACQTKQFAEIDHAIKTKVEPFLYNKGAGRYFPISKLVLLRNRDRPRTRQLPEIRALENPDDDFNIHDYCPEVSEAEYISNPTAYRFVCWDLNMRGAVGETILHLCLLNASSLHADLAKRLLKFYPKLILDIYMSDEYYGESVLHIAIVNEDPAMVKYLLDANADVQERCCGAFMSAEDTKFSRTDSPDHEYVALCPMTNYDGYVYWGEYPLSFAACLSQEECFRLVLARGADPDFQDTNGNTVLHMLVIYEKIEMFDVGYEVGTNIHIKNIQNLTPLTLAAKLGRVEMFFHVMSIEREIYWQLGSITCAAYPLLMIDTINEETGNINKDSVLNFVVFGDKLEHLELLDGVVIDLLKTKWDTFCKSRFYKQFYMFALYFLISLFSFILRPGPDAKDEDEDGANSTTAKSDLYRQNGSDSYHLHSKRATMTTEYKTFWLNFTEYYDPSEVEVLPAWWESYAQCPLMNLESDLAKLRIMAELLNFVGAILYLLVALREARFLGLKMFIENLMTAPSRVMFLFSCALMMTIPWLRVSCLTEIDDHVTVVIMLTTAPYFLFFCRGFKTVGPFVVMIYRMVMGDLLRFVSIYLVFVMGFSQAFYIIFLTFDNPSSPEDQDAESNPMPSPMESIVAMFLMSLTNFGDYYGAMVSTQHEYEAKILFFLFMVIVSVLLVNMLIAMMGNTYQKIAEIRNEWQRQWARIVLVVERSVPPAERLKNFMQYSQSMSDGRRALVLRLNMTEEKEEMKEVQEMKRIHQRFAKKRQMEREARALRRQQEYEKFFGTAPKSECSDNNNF
T1 sequence (Q9VHY7 1-986): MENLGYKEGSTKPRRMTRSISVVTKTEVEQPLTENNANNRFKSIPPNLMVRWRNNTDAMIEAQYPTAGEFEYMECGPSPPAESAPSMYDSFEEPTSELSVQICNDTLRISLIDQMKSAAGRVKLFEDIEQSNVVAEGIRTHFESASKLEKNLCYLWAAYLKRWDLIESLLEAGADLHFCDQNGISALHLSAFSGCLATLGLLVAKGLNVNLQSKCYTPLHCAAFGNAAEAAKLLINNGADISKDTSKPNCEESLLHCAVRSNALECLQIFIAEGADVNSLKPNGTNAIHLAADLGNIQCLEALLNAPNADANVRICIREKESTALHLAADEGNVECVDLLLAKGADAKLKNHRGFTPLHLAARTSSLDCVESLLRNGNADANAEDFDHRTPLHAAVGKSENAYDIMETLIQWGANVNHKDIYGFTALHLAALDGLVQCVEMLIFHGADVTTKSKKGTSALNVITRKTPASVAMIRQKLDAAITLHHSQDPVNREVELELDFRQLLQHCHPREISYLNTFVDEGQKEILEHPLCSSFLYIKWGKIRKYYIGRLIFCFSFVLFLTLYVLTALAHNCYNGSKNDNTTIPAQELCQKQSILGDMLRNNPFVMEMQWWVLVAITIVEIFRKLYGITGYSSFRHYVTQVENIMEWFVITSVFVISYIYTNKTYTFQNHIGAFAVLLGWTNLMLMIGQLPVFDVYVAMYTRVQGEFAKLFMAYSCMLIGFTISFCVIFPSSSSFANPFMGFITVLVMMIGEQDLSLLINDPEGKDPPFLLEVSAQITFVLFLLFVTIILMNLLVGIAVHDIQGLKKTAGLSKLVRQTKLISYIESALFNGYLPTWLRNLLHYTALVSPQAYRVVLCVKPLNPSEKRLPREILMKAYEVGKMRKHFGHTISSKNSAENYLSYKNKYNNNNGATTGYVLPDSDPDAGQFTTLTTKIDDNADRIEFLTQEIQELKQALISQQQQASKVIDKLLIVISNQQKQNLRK

[12] = target: T2, Drosophila melanogaster Water witch fused at its carboxyl terminus with FLAG tags and AcGFP fluorescent … (Drosophila melanogaster); assay: co-immunoprecipitation from lysates of adenovirus-transduced CHO-K1 cells; anti-FLAG M2 affinity gel, Western blot with anti-HA
T2 construct: TRPA channel subunit expressed in hamster CHO-K1 cells by adenovirus; also called Wtrw-FLAG; FLAG-tagged Water witch; not shown: FLAG tags and AcGFP fused in-frame at the carboxyl terminus
T2 chain: T1 sequence (Q9VHY7 1-986)

N#CCNC(=O)c1cnccc1C(F)(F)F [flonicamid]
Ca2+ mobilization response [1]: without effect

O=CC=Cc1ccccc1 [cinnamaldehyde]
Ca2+ mobilization response [2]: not responsive | Ca2+ mobilization response (Nanchung (Nan) [3]): nor in cells expressing Nancung (Nan) | Ca2+ mobilization response [4]: activation of Ca2+ mobilization | Ca2+ mobilization response [5]: not in parental mammalian cells | Ca2+ mobilization response (Water witch (Wtrw)): efficiently activated | Ca2+ mobilization response [1]: efficiently activated

C=CCN=C=S [allyl isothiocyanate]
Ca2+ mobilization response [2]: not responsive | Ca2+ mobilization response (Nanchung (Nan) [3]): nor in cells expressing Nancung (Nan) | Ca2+ mobilization response [4]: activation of Ca2+ mobilization | Ca2+ mobilization response [5]: not in parental mammalian cells | Ca2+ mobilization response (Water witch (Wtrw)): efficiently activated | Ca2+ mobilization response [1]: efficiently activated

NC(=O)c1cccnc1 [nicotinamide]
Ca2+ mobilization response [2]: evoked Ca2+ response | Ca2+ mobilization response [5]: not in parental mammalian cells | Inhibition of binding of tritiated afidopyropen [6]: completely inhibited binding | Inhibition of binding of tritiated afidopyropen [7]: completely inhibited binding | Ca2+ mobilization response (Water witch (Wtrw)): not in the cells expressing these proteins individually | Ca2+ mobilization response [1]: evoked Ca2+ response | Potency and efficacy of activation, Nanchung:Inactive compared with Nanchung:Water witch complexes ([1]; dose response of calcium responses, FIG. 4B): nearly identical potency and efficacy

C[C@]1(COC(=O)C2CC2)[C@@H]2C[C@H](O)[C@@]3(C)Oc4cc(-c5cccnc5)oc(=O)c4[C@H](O)[C@@H]3[C@@]2(C)CC[C@@H]1OC(=O)C1CC1 [afidopyropen]
Kd [8]: 4.5 nM | Kd [6]: 0.048 nM | Binding of tritiated afidopyropen [9]: negligible | Response of Nanchung alone to stimulation (Nanchung (Nan) [10]): does not respond | Ca2+ mobilization response [1]: elicited calcium mobilization

NC(=O)c1cnccc1C(F)(F)F [TFNA-AM, 4-trifluoronicotinamide]
Ca2+ mobilization response [1]: without effect

C[C@]1(COC(=O)C2CC2)[C@@H]2C[C@H](O)[C@@]3(C)Oc4cc(-c5cccnc5)oc(=O)c4[C@H](O)[C@@H]3[C@@]2(C)CC[C@@H]1OC(=O)C1CC1 [AP, afidopyropen]
EC50 [11]: 39 nM

CC1=NNC(=O)N(/N=C/c2cccnc2)C1 [pymetrozine]
Inhibition of binding of tritiated afidopyropen [6]: completely inhibited binding | Inhibition of binding of tritiated afidopyropen [7]: completely inhibited binding | Response of Nanchung alone to stimulation (Nanchung (Nan) [10]): does not respond | Ca2+ mobilization response [1]: elicited calcium mobilization

B1: Drosophila melanogaster Nanchung fused at its carboxyl terminus with HA tags and mCherry fluorescent protein (other)
chain: T1 sequence (Q9VUD5 1-833)
notes: TRPV channel subunit expressed in hamster CHO-K1 cells by adenovirus; For the co-immunoprecipitation the cells were lysed in Triton X-100 buffer; also called Nan-HA; HA-tagged Nanchung; not shown: HA tags and mCherry fused in-frame at the carboxyl terminus
binding result [12]: binds
